Values joined by “and” are separate entries in the source; they are usually repeats but may differ in a detail not shown here. Identical values can stand only once. “Also recorded” adds a separate entry of the source. Like-named read-outs stand apart in the source and are kept apart here.
Assays:
[1] = Euglycemic-hyperinsulinemic 2 steps clamp with 3H-glucose after 5 weeks of treatment in WD fed rats; assay type: in vivo, rat
Experimental: After 4 weeks of treatment, a catheter was implanted into the femoral vein under isoflurane anaesthesia and a period of 5-6 days was respected for recovery. […] The morning of the clamp procedure, rats were treated and fasted for 6 hours prior to tracer, glucose and insulin infusions. The beginning of the clamp procedure was performed in the middle of the dark cycle.
The euglycemic hyperinsulinemic 2 steps insulin clamp was performed using 0.2 U/kg/h and 0.8 U/kg/h insulin infusion associated with 3H-glucose infusion. We then assessed:
During the clamp procedure, a bolus (30 μCi) of D-[3-3H]glucose was first injected followed by 4 μCi/min/kg infusion rate during all the experiment to ensure a detectable plasma D[3-3H]glucose enrichment. A bolus of insulin (100 mU) was first injected, and insulin was then infused at a rate of 0.2 U/kg/h for the first 2 hours and 0.8 U/kg/h from 120 minutes to 210 minutes.
Throughout the infusion, glycaemia was assessed with a blood glucose meter from the tip of the tail vein when needed. Euglycemia was maintained by periodically (every 10 minutes) adjusting a variable infusion of 30% glucose. Plasma glucose concentrations and D-[3-3H]glucose specific activity were determined during stable phase in 10 μl of blood sampled from the tip of the tail vein every 20 minutes from 60 to 120 minutes during the first step and from 150 to 210 minutes during the second step.
For glucose turnover measurements, D-[3-3H]glucose enrichments were determined from total blood after deproteinization by a Zn(OH)2 precipitate. Briefly, an aliquot of the supernatant was evaporated to dryness to determine the radioactivity corresponding to D-3-3H. In a second aliquot of the same supernatant, glucose concentration was assessed by the glucose oxidase method (Biomérieux, France).
Calculations for glucose turnover measurements were made from parameters obtained during the infusions in steady-state condition ([…]). Briefly, the D-[3-3H]glucose specific activity was calculated by dividing the D-[3-3H]glucose enrichment by the plasma glucose concentration. The whole body glucose turnover rate was calculated by dividing the rate of D[3-3H]glucose by the D-[3-3H]glucose plasma specific activity. For each rat, the mean values were calculated and averaged with values from rats of the same group. The whole body glycolysis rate was measured by assessing the amount of tritiated water accumulated in the blood during the 3H-glucose infusion and the whole body glycogen synthesis rate was calculated by the difference between the whole body glucose turnover and the whole body glycolysis rate.

[2] = biological target: T1, rat PPARγ (Rattus norvegicus, UniProt O88275); assay: GAL4-PPAR chimera transactivation assay in CV-1 cells at 10% or 0.1% serum (Example 4); assay type: cell-based; conditions: read-out: GAL4-chimera (rat) EC50 (μM) hPPARγ
T1 construct: expressed in transfected cells; host or cells: CV-1
T1 sequence (O88275 238-503 limits assumed): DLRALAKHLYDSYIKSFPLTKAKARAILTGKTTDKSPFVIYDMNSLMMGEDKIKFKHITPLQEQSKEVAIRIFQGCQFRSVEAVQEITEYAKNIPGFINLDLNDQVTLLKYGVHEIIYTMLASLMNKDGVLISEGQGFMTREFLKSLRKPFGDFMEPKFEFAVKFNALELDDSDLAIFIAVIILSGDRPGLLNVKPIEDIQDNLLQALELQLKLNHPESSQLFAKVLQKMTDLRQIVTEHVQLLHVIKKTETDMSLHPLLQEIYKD

[3] = Plasma biochemistry after 17 days of treatment in WD fed rats (glycemia, insulin, HOMA-IR, adiponectin, FFA, TG); assay type: in vivo, rat
[4] = biological target: T2, rat PPARα (Rattus norvegicus, UniProt P37230); assay: GAL4-PPAR chimera transactivation assay in CV-1 cells at 10% or 0.1% serum (Example 4); assay type: cell-based; conditions: read-out: GAL4-chimera (rat) EC50 (μM) hPPARα
T2 construct: expressed in transfected cells; host or cells: CV-1
T2 sequence (P37230 239-466 limits assumed): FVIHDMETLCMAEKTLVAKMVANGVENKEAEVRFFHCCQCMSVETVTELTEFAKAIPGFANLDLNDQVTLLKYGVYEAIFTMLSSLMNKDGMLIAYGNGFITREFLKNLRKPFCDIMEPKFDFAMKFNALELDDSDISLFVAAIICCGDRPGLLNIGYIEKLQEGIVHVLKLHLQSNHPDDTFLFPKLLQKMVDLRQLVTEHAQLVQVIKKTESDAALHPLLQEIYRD

[5] = biological target: T3, mouse PPARγ (Mus musculus, UniProt P37238); assay: as above; assay type: cell-based; conditions: read-out: GAL4-chimera (mouse) EC50 (μM) hPPARγ
T3 construct: amino acids 204-505 for m and mm from PPARγ; expressed in transfected cells; host or cells: CV-1
T3 sequence (P37238 204-505): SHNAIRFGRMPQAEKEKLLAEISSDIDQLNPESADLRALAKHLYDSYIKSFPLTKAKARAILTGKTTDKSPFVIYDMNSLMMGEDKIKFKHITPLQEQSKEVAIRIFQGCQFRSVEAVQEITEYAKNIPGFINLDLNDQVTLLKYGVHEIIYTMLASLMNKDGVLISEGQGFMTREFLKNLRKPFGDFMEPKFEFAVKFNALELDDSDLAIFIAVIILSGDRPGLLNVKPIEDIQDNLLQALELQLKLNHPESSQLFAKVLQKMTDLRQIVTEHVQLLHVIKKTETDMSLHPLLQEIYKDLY

[6] = biological target: T4, mouse PPARα (Mus musculus, UniProt P23204); assay: as above; assay type: cell-based; conditions: read-out: GAL4-chimera (mouse) EC50 (μM) hPPARα
T4 construct: amino acids 167-468 for hs and m; expressed in transfected cells; host or cells: CV-1
T4 sequence (P23204 167-468): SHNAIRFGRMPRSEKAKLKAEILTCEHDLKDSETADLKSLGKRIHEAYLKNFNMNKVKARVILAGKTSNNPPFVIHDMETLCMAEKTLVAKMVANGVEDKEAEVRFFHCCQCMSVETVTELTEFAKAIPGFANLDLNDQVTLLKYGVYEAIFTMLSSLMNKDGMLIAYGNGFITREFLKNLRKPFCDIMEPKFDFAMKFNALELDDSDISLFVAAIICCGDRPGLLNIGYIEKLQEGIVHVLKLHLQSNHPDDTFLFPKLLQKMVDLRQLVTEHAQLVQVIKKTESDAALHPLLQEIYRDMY

[7] = Oral glucose tolerance test after 3 weeks of treatment in WD fed rats; assay type: in vivo, rat; conditions: 6 h fasted, oral glucose 2.5 g/kg after 3 weeks

For `Cc1cc(C(=O)CCc2sc(-c3ccc(C(F)(F)F)cc3)nc2C(C)C)ccc1OCC(=O)O` [compound I.1, 4-[3-[4-Isopropyl-2-[4-(trifluoromethyl)phenyl]-5-thiazolyl]propionyl]-2-methylphenoxyacetic acid], the “Insulin resistance / insulin sensitizing effect (overall)” value ([1]; WD fed rats, after 5 weeks, compound I.1 dose not specified (3 and 10 mg/kg groups), pioglitazone 10, metformin 50 mg/kg) was “improved insulin resistance in a lesser extent than pioglitazone and metformin, but was more effective than GW501516; also recorded: insulin sensitizing effect, less marked than metformin”, the “Whole body glucose oxidation” value ([1]; WD fed rats, clamp after 5 weeks, metformin 50 mg/kg, compound I.1 dose not specified, alone or associated) was “tended to increase” and the “Increase of GIR (glucose infusion rate) during the first step” value ([1]; clamp 0.2 U/kg/h insulin, after 5 weeks, compound I.1 3 mg/kg) was 105%. The “Decrease of HGP (hepatic glucose production)” value ([1]; clamp 0.2 U/kg/h insulin, compound I.1 3 mg/kg) was 22%, the Increase of glycolysis ([1]; clamp 0.8 U/kg/h insulin, metformin 50, GW501516 10, compound I.1 10 mg/kg (alone or +metformin 50 mg/kg)) was 42% and the EC50 ([2]; 0.1% serum) was over 10 µM. For the same compound, the EC50 ([2]; 10% serum) was over 10 µM, the “Decrease of HOMA-IR” value ([3]; 4 h fasted, pioglitazone 10, metformin 50, GW501516 10, compound I.1 10 mg/kg) was ~25% and 28% and the Plasma adiponectin levels ([3]; pioglitazone 10, metformin 50, GW501516 10, compound I.1 3 and 10 mg/kg) was “did not prevent a decrease”. It also gave an EC50 ([4]; 0.1% serum) of over 10 µM, an EC50 ([4]; 10% serum) of over 10 µM and an EC50 ([5]; 0.1% serum) of over 10 µM. It also gave an EC50 ([5]; 10% serum) of over 10 µM, an EC50 ([6]; 0.1% serum) of over 10 µM and an EC50 ([6]; 10% serum) of over 10 µM. The “Glucose tolerance (OGTT, AUC, glycemia variation)” value ([7]; compound I.1 3 mg/kg) was “slight tendency to improve glucose tolerance” and the “Glucose tolerance (OGTT, AUC, glycemia variation)” value ([7]; pioglitazone 10, metformin 50, GW501516 10, compound I.1 10 mg/kg) was “significantly improved glucose tolerance”.
